Values quoted from earlier work in US7833962B2, “Method of reducing hypertension by administering flavanol gylcosides” (Conopco, Inc., priority 2003, dated 2010).
“Also recorded” adds a separate entry of the source.

Legend:
[1] = test system: Spontaneously Hypertensive Rats (SHR); conditions: chronic treatment, Duarte et al. 2001
[2] = compared with quercetin glucosides such as isoquercitrin

SMILES | blood pressure [1] | glutathione peroxidase activity [1] | plasma and hepatic malondialdehyde levels [1] | bioavailability [2]
O=c1c(O)c(-c2ccc(O)c(O)c2)oc2cc(O)cc(O)c12 [quercetin aglycone, quercetin] | reduced blood pressure | increased glutathione peroxidase activity | reduced both plasma and hepatic malondialdehyde levels | 
C[C@@H]1O[C@@H](OC[C@H]2O[C@@H](Oc3c(-c4ccc(O)c(O)c4)oc4cc(O)cc(O)c4c3=O)[C@H](O)[C@@H](O)[C@@H]2O)[C@H](O)[C@H](O)[C@H]1O [rutin, quercetin-3-rutinoside] |  |  |  | poor bioavailability; also recorded: much lower than the glucoside isoquercitrin
